Assay results published in US20100022584A1, “Modulation of Glutamine Synthetase Activity” (priority 2006, published 2010).
Residue numbers refer to the chain shown, from its start.

Columns and labels:
[1] = biological target: T1, deadenylylated WT enzyme, WT (DD) glutamine synthetase (Escherichia coli, UniProt P0A9C5); assay: HPLC forward-reaction glutamine synthetase assay with serine protease inhibitors; format: biochemical, E. coli; details: 1 mM inhibitor; for % Reduction in ADP-based Specific Activity / % Reduction in Glutamine-based Specific Activity: 60 min pre-incubation, vs no-inhibitor control, positive = activity increased; for % Conversion: glutamine-based divided by ADP-based specific activity
T1 construct: made in house; host or cells: E. coli carrying pBSK-ECgln (pBluescript II SK+), continuous culture; YMC11 is the expression strain named for this plasmid
T1 sequence (P0A9C5 2-469 limits assumed): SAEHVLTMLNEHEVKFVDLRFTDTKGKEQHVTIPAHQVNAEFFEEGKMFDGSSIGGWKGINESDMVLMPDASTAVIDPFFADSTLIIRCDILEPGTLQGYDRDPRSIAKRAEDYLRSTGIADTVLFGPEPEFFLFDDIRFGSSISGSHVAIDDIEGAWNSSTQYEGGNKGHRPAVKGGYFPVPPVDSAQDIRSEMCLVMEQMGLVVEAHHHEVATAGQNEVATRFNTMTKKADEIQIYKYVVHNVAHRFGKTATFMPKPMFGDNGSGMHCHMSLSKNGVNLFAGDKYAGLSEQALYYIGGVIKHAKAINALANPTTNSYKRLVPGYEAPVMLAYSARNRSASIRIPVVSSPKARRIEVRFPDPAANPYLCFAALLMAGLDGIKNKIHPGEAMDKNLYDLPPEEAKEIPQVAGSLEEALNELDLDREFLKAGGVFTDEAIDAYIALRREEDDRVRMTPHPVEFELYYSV
Protocol: (§1) This assay was set up to measure glutamine synthetase activity according to the forward reaction, and measures the amount of glutamine formed from […] of L-glutamate in the presence of MnCO3-ATP (the basis of one reaction) and MgATP (the basis of a second reaction). In addition, the amount of ADP formed is also measured in a separate assay, using the same reagents.
(§2) All enzyme preparations were adjusted to the same concentration of protein, and added to the assay mixture in a volume of 50 μl. The addition of the enzyme started the reaction, which was then allowed to proceed for 1 hour. The reaction was stopped by the addition of 6 μl of a 50% solution of trichloroacetic acid. Each assay was then aliquoted into 4 HPLC vials (150 μl per vial), two of which were assayed for glutamate and glutamine using a Phenomenex Luna 5 μC18 Column on an Agilent 100 HPLC instrument. The ATP/ADP assays were run on a Chromolith Performance RP-18c column also using an Agilent 100 HPLC instrument.
(§3) As it is believed that two putative catalytic triads, similar to those in the serine proteases, are involved in the reaction mechanism of glutamine synthetase, certain of the mutants were also assayed by HPLC in the presence of the serine protease inhibitors, AEBSF and PMSF, in order to assess the effect that these inhibitors had on the enzyme. The enzymes assessed were the adenylylated WT enzyme, the deadenylylated WT enzyme, and the mutant enzymes S52A, S52A Y397V, S53A, S53A Y397V, S52A S53A and S52A S53A Y397V. The enzymes were pre-incubated for 60 minutes in the presence of 1 mM PMSF or 1 mM AEBSF. A control reaction was set up for each enzyme, which contained no inhibitor. Each enzyme was then added to assays set up as described above. The assay was allowed to proceed for 60 minutes, then stopped by the addition of […] of 50% TCA, after which they were analysed by HPLC. All assays were run in triplicate.
(§4) In addition to the γ-glutamyl transferase assays, assays were also developed to measure the rate of conversion of ATP and glutamate to ADP and glutamine by HPLC. These were set up as single assays but analysed separately for glutamate and glutamine and ATP and ADP. The conversion rates for glutamate to glutamine, in both the presence of Mn^2+ and Mg^2+ by glutamine synthetase, is referred to as the […] specific activity and is presented in μmoles/min/mg protein. The conversion rates for ATP to ADP, in both the presence of Mn^2+ and Mg^2+ by glutamine synthetase, is referred to as the ADP-based specific activity and is presented in μmoles/min/mg protein. The percentage of conversion was also calculated by dividing the glutamine-based specific activity by the ADP-based specific activity, and this value is interpreted as the ability of the enzyme to complete both steps of the reaction, i.e., glutamate to glutamine and ATP to ADP, at an equivalent level of efficiency.

[2] = biological target: T2, glutamine synthetase mutant S52A Y397V (Escherichia coli, UniProt P0A9C5, S53A/Y398V); assay: as above; format: biochemical, E. coli; details: 1 mM inhibitor; for inhibition of the enzyme (in words): HPLC assays; for % Conversion: glutamine-based divided by ADP-based specific activity
T2 construct: made in house; host or cells: E. coli YMC11 (glutamine synthetase auxotroph), pBluescript II SK+
T2 sequence (P0A9C5 2-469 S53A/Y398V limits assumed): T1 sequence (P0A9C5 2-469 limits assumed) with S52A, Y397V
Protocol: as §1, §2, §3, §4

Compound	% Reduction in ADP-based Specific Activity ([1]; Mg assay)	% Reduction in Glutamine-based Specific Activity ([1]; Mg assay)	% Conversion ([1]; Mg assay)	% Reduction in ADP-based Specific Activity ([1]; Mn assay)	% Reduction in Glutamine-based Specific Activity ([1]; Mn assay)	% Conversion ([1]; Mn assay)	inhibition of the enzyme (in words) [2]	% Conversion ([2]; Mg assay)	% Conversion ([2]; Mn assay)
O=S(=O)(F)Cc1ccccc1 [PMSF]	−6.07%	−16.55%	67%	−3.53%	−17.69%	78%	found to inhibit	49%	67%
NCCc1ccc(S(=O)(=O)F)cc1 [AEBSF]	−14.98%	−8.43%	82%	−4.73%	−2.23%	94%	appeared to cause inhibition		85%
